Each block holds one compound with its values, some of them ahead of it. *1 amine or outer side, *2 acyl side, *3 side chain or, on linkers, in order; H or OH if unused. Where a SMILES comes first, the peptide text is derived from it. Bridges are numbered along the chain shown (N, C = ends). Side-chain parts run from the residue outwards. [ ]: non-standard residue; d: D form. The star is where a group is joined. C20 diacid = O=C(O)CCCCCCCCCCCCCCCCCCC(=O)*; γGlu = O=C(O)[C@H](CCC(=O)[*:2])N[*:1]; AEEA = NCCOCCOCC(=O)O; Aib = CC(C)(N)C(=O)O
Experiments:
[1] = target: T1, human Glucagon receptor (GCGR) (Homo sapiens, UniProt P47871); assay: cAMP accumulation assay, CHO-K1 cells expressing human GCGR; assay type: cell-based; settings: mean pEC50, Table 10
T1 construct: A cDNA fragment encoding the full-length open reading frame of the human GCGR; expressed in transfected cells; host or cells: CHO-K1, pcDNA3.1+, Lipofectamine 2000
T1 sequence (P47871 26-477): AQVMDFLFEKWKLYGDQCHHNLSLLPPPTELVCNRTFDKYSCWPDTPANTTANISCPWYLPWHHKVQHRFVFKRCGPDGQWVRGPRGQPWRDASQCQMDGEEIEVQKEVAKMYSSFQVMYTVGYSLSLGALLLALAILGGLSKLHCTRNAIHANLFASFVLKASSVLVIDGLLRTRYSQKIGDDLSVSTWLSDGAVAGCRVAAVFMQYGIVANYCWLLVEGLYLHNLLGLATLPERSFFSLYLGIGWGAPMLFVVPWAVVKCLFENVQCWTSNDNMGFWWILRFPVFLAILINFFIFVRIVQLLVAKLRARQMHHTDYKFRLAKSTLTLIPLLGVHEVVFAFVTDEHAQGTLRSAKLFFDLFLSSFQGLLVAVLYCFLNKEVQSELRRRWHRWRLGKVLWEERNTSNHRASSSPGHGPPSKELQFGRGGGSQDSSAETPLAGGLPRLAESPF

[2] = target: T2, human GLP-1 receptor (GLP-1R) (Homo sapiens, UniProt P43220); assay: cAMP accumulation assay, CHO-K1 cells stably expressing human GLP-1R; assay type: cell-based; settings: cAMP accumulation, mean pEC50, Table 10
T2 construct: expressed in transfected cells
T2 sequence (P43220 24-463): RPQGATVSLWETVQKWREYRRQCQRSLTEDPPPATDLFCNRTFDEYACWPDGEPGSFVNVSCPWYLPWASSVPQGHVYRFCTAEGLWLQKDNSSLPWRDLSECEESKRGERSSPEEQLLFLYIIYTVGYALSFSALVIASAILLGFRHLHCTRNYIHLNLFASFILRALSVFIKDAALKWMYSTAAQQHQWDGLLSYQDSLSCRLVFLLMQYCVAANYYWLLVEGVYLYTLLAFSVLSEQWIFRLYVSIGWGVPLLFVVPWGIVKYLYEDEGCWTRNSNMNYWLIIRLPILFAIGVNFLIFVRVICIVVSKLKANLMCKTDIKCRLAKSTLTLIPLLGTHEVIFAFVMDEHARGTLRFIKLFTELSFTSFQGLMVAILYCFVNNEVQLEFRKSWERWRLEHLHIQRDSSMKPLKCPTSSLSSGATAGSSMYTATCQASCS

[3] = cited from earlier work

Compound: CC(C)C[C@H](NC(=O)[C@H](Cc1ccc(O)cc1)NC(=O)[C@H](CCCCN)NC(=O)[C@H](CO)NC(=O)[C@H](Cc1ccc(O)cc1)NC(=O)[C@H](CC(=O)O)NC(=O)[C@H](CO)NC(=O)[C@@H](NC(=O)[C@H](Cc1ccccc1)NC(=O)[C@@H](NC(=O)CNC(=O)[C@H](Cc1c[nH]cn1)NC(=O)[C@H](CO)NC(=O)[C@@H](N)Cc1ccc(O)cc1)[C@@H](C)O)[C@@H](C)O)C(=O)N[C@@H](CC(=O)O)C(=O)N[C@@H](CCCCNC(=O)CC[C@H](NC(=O)CC[C@H](NC(=O)CCCCCCCCCCCCCCCCCCC(=O)O)C(=O)O)C(=O)O)C(=O)N[C@@H](CCCCN)C(=O)N[C@@H](Cc1ccc(O)cc1)C(=O)N[C@@H](C)C(=O)N[C@@H](CCC(N)=O)C(=O)N[C@@H](CCC(=O)O)C(=O)N[C@@H](Cc1ccccc1)C(=O)N[C@H](C(=O)NC(C)(C)C(=O)N[C@@H](Cc1c[nH]c2ccccc12)C(=O)N[C@@H](CC(C)C)C(=O)N[C@@H](CCC(=O)O)C(=O)N[C@@H](CC(=O)O)C(=O)N[C@@H](CCC(=O)O)C(=O)N1CCC[C@H]1C(=O)N[C@@H](CO)C(=O)N[C@@H](CO)C(=O)NCC(=O)N[C@@H](C)C(=O)N1CCC[C@H]1C(=O)N1CCC[C@H]1C(=O)N1CCC[C@H]1C(=O)N[C@@H](CO)C(=O)O)C(C)C [Compound A13] (H-YSHGTFTSDYSKYLDK([γGlu-γGlu-C20 diacid])KYAQEFV[Aib]WLEDEPSSGAPPPS-OH)
- EC50 [1]: 1 pM
- EC50 [2]: > 1000 pM

Compound: CC(C)C[C@H](NC(=O)[C@H](Cc1ccc(O)cc1)NC(=O)[C@H](CCCCN)NC(=O)[C@H](CO)NC(=O)[C@H](Cc1ccc(O)cc1)NC(=O)[C@H](CC(=O)O)NC(=O)[C@H](CO)NC(=O)[C@@H](NC(=O)[C@H](Cc1ccccc1)NC(=O)[C@@H](NC(=O)CNC(=O)[C@H](Cc1c[nH]cn1)NC(=O)[C@H](CO)NC(=O)[C@@H](N)Cc1ccc(O)cc1)[C@@H](C)O)[C@@H](C)O)C(=O)N[C@@H](CC(=O)O)C(=O)N[C@@H](CCCCNC(=O)CC[C@H](NC(=O)CC[C@H](NC(=O)COCCOCCNC(=O)CCCCCCCCCCCCCCCCCCC(=O)O)C(=O)O)C(=O)O)C(=O)N[C@@H](CCCCN)C(=O)N[C@@H](Cc1ccc(O)cc1)C(=O)N[C@@H](C)C(=O)N[C@@H](CCC(=O)O)C(=O)N[C@@H](CCC(=O)O)C(=O)N[C@@H](Cc1ccccc1)C(=O)N[C@H](C(=O)NC(C)(C)C(=O)N[C@@H](Cc1c[nH]c2ccccc12)C(=O)N[C@@H](CC(C)C)C(=O)N[C@@H](CCC(=O)O)C(=O)N[C@@H](CO)C(=O)N[C@@H](CCC(=O)O)C(=O)N1CCC[C@H]1C(=O)N[C@@H](CO)C(=O)N[C@@H](CO)C(=O)NCC(=O)N[C@@H](C)C(=O)N1CCC[C@H]1C(=O)N1CCC[C@H]1C(=O)N1CCC[C@H]1C(=O)N[C@@H](CO)C(=O)O)C(C)C [Compound A23] (H-YSHGTFTSDYSKYLDK([γGlu-γGlu-AEEA-C20 diacid])KYAEEFV[Aib]WLESEPSSGAPPPS-OH)
- EC50 [1]: 3.16 pM
- EC50 [2]: > 1000 pM

Compound: CC(C)C[C@H](NC(=O)[C@H](Cc1ccc(O)cc1)NC(=O)[C@H](CCCCN)NC(=O)[C@H](CO)NC(=O)[C@H](Cc1ccc(O)cc1)NC(=O)[C@H](CC(=O)O)NC(=O)[C@H](CO)NC(=O)[C@@H](NC(=O)[C@H](Cc1ccccc1)NC(=O)[C@@H](NC(=O)CNC(=O)[C@H](Cc1c[nH]cn1)NC(=O)[C@H](CO)NC(=O)[C@@H](N)Cc1ccc(O)cc1)[C@@H](C)O)[C@@H](C)O)C(=O)N[C@@H](CC(=O)O)C(=O)N[C@@H](CCCCNC(=O)CC[C@H](NC(=O)CC[C@H](NC(=O)COCCOCCNC(=O)CCCCCCCCCCCCCCCCCCC(=O)O)C(=O)O)C(=O)O)C(=O)N[C@@H](CCCCN)C(=O)N[C@@H](Cc1ccc(O)cc1)C(=O)N[C@@H](C)C(=O)N[C@@H](CCC(N)=O)C(=O)N[C@@H](CCC(=O)O)C(=O)N[C@@H](Cc1ccccc1)C(=O)NC(C)(C)C(=O)N[C@@H](CO)C(=O)N[C@@H](Cc1c[nH]c2ccccc12)C(=O)N[C@@H](CC(C)C)C(=O)N[C@@H](CCC(=O)O)C(=O)N[C@@H](CC(=O)O)C(=O)N[C@@H](CCC(=O)O)C(=O)N1CCC[C@H]1C(=O)N[C@@H](CO)C(=O)N[C@@H](CO)C(=O)NCC(=O)N[C@@H](C)C(=O)N1CCC[C@H]1C(=O)N1CCC[C@H]1C(=O)N1CCC[C@H]1C(=O)N[C@@H](CO)C(=O)O [Compound A10] (H-YSHGTFTSDYSKYLDK([γGlu-γGlu-AEEA-C20 diacid])KYAQEF[Aib]SWLEDEPSSGAPPPS-OH; N-terminus assumed)
- EC50 [1]: 39.8 pM
- EC50 [2]: > 1000 pM

Compound: CC(C)C[C@H](NC(=O)[C@H](Cc1ccc(O)cc1)NC(=O)[C@H](CCCCN)NC(=O)[C@H](CO)NC(=O)[C@H](Cc1ccc(O)cc1)NC(=O)[C@H](CC(=O)O)NC(=O)[C@H](CO)NC(=O)[C@@H](NC(=O)[C@H](Cc1ccccc1)NC(=O)[C@@H](NC(=O)CNC(=O)[C@H](Cc1c[nH]cn1)NC(=O)[C@H](CO)NC(=O)[C@@H](N)Cc1ccc(O)cc1)[C@@H](C)O)[C@@H](C)O)C(=O)N[C@@H](CC(=O)O)C(=O)N[C@@H](CCCCNC(=O)CC[C@H](NC(=O)CC[C@H](NC(=O)COCCOCCNC(=O)CCCCCCCCCCCCCCCCCCC(=O)O)C(=O)O)C(=O)O)C(=O)N[C@@H](CCCCN)C(=O)N[C@@H](Cc1ccc(O)cc1)C(=O)N[C@@H](C)C(=O)N[C@H]1CCC(=O)NCCCC[C@@H](C(=O)N[C@@H](Cc2c[nH]c3ccccc23)C(=O)N[C@@H](CC(C)C)C(=O)N[C@@H](CCC(=O)O)C(=O)N[C@@H](CC(N)=O)C(=O)N[C@@H](CCC(=O)O)C(=O)N2CCC[C@H]2C(=O)N[C@@H](CO)C(=O)N[C@@H](CO)C(=O)NCC(=O)N[C@@H](C)C(=O)N2CCC[C@H]2C(=O)N2CCC[C@H]2C(=O)N2CCC[C@H]2C(=O)N[C@@H](CO)C(=O)O)NC(=O)[C@H](C(C)C)NC(=O)[C@H](Cc2ccccc2)NC(=O)[C@H](CCCCN)NC1=O [Compound A27] (H-YSHGTFTSDYSKYLDK([γGlu-γGlu-AEEA-C20 diacid])KYAEKFVKWLENEPSSGAPPPS-OH; lactam 20-24; N-terminus assumed)
- EC50 [1]: 1 pM
- EC50 [2]: > 1000 pM

- EC50 [1]: 2 pM
- EC50 [2]: > 1000 pM
Compound: CC(C)C[C@H](NC(=O)[C@H](Cc1ccc(O)cc1)NC(=O)[C@H](CCCCN)NC(=O)[C@H](CO)NC(=O)[C@H](Cc1ccc(O)cc1)NC(=O)[C@H](CC(=O)O)NC(=O)[C@H](CO)NC(=O)[C@@H](NC(=O)[C@H](Cc1ccccc1)NC(=O)[C@@H](NC(=O)CNC(=O)[C@H](Cc1c[nH]cn1)NC(=O)[C@H](CO)NC(=O)[C@@H](N)Cc1ccc(O)cc1)[C@@H](C)O)[C@@H](C)O)C(=O)N[C@@H](CC(=O)O)C(=O)N[C@@H](CCCCNC(=O)CC[C@H](NC(=O)CC[C@H](NC(=O)COCCOCCNC(=O)CCCCCCCCCCCCCCCCCCC(=O)O)C(=O)O)C(=O)O)C(=O)N[C@@H](CCCCN)C(=O)N[C@@H](Cc1ccc(O)cc1)C(=O)N[C@@H](C)C(=O)N[C@H]1CCC(=O)NCCCC[C@@H](C(=O)N[C@@H](Cc2c[nH]c3ccccc23)C(=O)N[C@@H](CC(C)C)C(=O)N[C@@H](CCC(=O)O)C(=O)N[C@@H](CC(=O)O)C(=O)N[C@@H](CCC(=O)O)C(=O)N2CCC[C@H]2C(=O)N[C@@H](CO)C(=O)N[C@@H](CO)C(=O)NCC(=O)N[C@@H](CCCCN)C(=O)N2CCC[C@H]2C(=O)N2CCC[C@H]2C(=O)N2CCC[C@H]2C(=O)N[C@@H](CO)C(=O)O)NC(=O)[C@H](C(C)C)NC(=O)[C@H](Cc2ccccc2)NC(=O)[C@H](CCCCN)NC1=O [Compound A32] (H-YSHGTFTSDYSKYLDK([γGlu-γGlu-AEEA-C20 diacid])KYAEKFVKWLEDEPSSGKPPPS-OH; lactam 20-24; N-terminus assumed)

Compound: human amylin: Human amylin, or islet amyloid polypeptide (IAPP), is a 37-residue polypeptide hormone (KCNTATCATQRLANFLVHSSNNFGAILSSTNVGSNTY; Islet amyloid polypeptide; UniProt P10997 34-70, looked up)
- half-life in serum [3]: about 13 minutes
